Among the data in article PMC4912613, “A broad analysis of resistance development in the malaria parasite” (Nature Communications, 2016) are EC50 values, retold here.

In one assay the test system is W2. The assay can be described thus: Cross-resistance EC50 assay, W2 parent. Type of assay: cell-based, Plasmodium falciparum. The note with it: Plasmodium falciparum, 48 h, read-out: W2F6 (PARENT) Average EC50. The gist of the method: (§1)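 P. falciparum asexual blood-stage proliferation, parent/sensitive strain of each resistant clone; 48-h assay with rings (0.5% parasitemia, 2.0% haematocrit) in RPMI-1640/5% AlbuMAX, ^3H-hypoxanthine added at 24 h, normalized to no-drug and 2 μM artesunate controls; alternatively 72-h SYBR Green assay (0.3% parasitemia, 4% haematocrit). EC50s from triplicate fits.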

Another assay relates to Dd2. Nature of the assay: Cross-resistance EC50 assay, Dd2 parent. Type of assay: cell-based, Plasmodium falciparum. The conditions noted are these: Plasmodium falciparum, DD2, 72 h.
For the next assay, the system named is 3D7. Nature of the assay: Cross-resistance EC50 assay, 3D7 parent / sensitive strain. Type of assay: cell-based. The note with it: Plasmodium falciparum. Summed up: as §1
Setting [1] is: read-out: Dd2 (PARENT) Average EC50.
Where [2] appears, read: read-out: Dd2 (PARENT) EC50 (µM) Average EC50.
The mark [3] stands for this setting: SYBR green 72 hour assay, asynchronized parasites, 96-well or 1536-well format, 3D7 parent, read-out: 3D7 (PARENT) EC50 (µM) Average EC50.
The mark [4] stands for this setting: SYBR green 72 hour assay, synchronized parasites, 384-well format, 3D7 parent, read-out: 3D7 (PARENT) Average EC50.
Where [5] appears, read: hypoxanthine 48-hour assay, synchronized parasites, 96-well format, strain 3D7 (parent), read-out: 3D7 (PARENT) Average EC50.
Setting [6] is: hypoxanthine 48-hour assay, synchronized parasites, 96-well format, strain 3D7-C9-WT (parent of PfATP4 Mut3), read-out: 3D7-C9-WT (PARENT) Average EC50.

Read-outs that look alike come from different tables or passages of the source.

Turning to `COc1ccc2c3c([nH]c2c1)[C@H](CO)N(C(C)=O)CC31CCN(C(=O)Nc2ccccc2F)CC1` [MMV673482], the half-maximal effective concentration (EC50) (as a rule, the concentration that produces a half-maximal response) in the assay with W2 was 176 nM; with Dd2 (setting [1]), 0.07 µM; in the assay on Dd2 (setting [2]), 0.005 µM; in the assay with 3D7 (setting [3]) it was 0.039 µM; with 3D7 (setting [4]) it was 0.127 µM; in the assay with 3D7 (setting [5]), 0.232 µM. In addition, in the assay with 3D7 (setting [6]), the EC50 is 0.234 µM.
On to `CN(C)CCCNCc1ccc(-c2ccc(Cl)c(Cl)c2)o1` [MMV673964], for which the EC50 in the assay with W2 came out at 561 nM; with Dd2 (setting [1]), 0.426 µM; in the assay with Dd2 (setting [2]) it was 1.12 µM; in the assay on 3D7 (setting [3]), 0.068 µM; in the assay on 3D7 (setting [4]), 0.29 µM; with 3D7 (setting [5]), 0.633 µM. In the assay with 3D7 (setting [6]), the concentration giving a half-maximal response (EC50) was found to be 0.575 µM.
